In US20220280543A1, “DDX17 AND NLRC4 TARGETING FOR INFLAMMATORY DISEASES” (University of Virginia Patent Foundation, priority 2019, published 2022):
“Also recorded” adds a separate entry of the source.

Tests used:
NLRP3/NLRC4 complex = experiment: Biotin-streptavidin pulldown of biotin-labeled NRTIs with NLRC4/NLRP3, immunoblot; type: binding; conditions: immunoblot (FIG. 33)
Description: FIG. 33. NRTIs directly bind to NLRP3/NLRC4 complex in a reconstituted system. HEK293 cell were transfected with NLRC4 and NLRP3. Biotin-Labeled NRTIs (D4T, AZT) were added to the HEK cells 4 hours later, and cell pellets were collected for biotin streptavidin pulldown. Binding between NRTIs and NLRC4/NLRP3 was detected by immunoblot. […] The bands of NLRC4 and NLRP3 pulled down with biotinylated NRTI are indicated with black arrows.
Finally, we sought to investigate the mechanism through which NRTIs inhibit NLRC4 inflammasome and asked whether this is NLRP3 dependent. We transfected WT and NLRP3 KO BMDMs with flagellin to examine caspase-1 activation using immunoblot. […] To further confirm the mechanism of action of NRTIs, we investigated whether they directly bind to NLRP3/NLRC4 complex in a reconstituted system. We treated flagellin transfected BMDMs with free and biotin labeled D4T and AZT and pulled down biotin.

RPE degeneration [1] = conditions: intraperitoneal administration; previously reported; cited from earlier work
NLRC4 inflammasome = experiment: Flagellin-induced caspase-1 activation in wild type BMDM pre-treated with NRTIs, immunoblot; type: cell-based, mouse; conditions: NRTI at 100 μM for 1 hour, flagellin transfection 3 μg/ml (FIG. 27)
Description: FIG. 27. NRTI block Flagellin induced NLRC4 inflammasome in BMDM. Wild type BMDM cells were pre-treated with exemplary NRTIs (D4T, 3TC) at 100 μM for 1 hour, and then stimulated with flagellin transfection (3 μg/ml). Supernatant and cell lysate were collected for Caspase-1 detection. […] The caspase-1 (p20) bands are indicated with black arrow.
FIG. 28. NRTI (3TC) blocks flagellin-induced NLRC4 inflammasome in a dose dependent manner. Wild type BMDM cell were pre-treated with indicated dose of NRTI (3TC) for 1 hour, and then stimulated with Flagellin transfection (3 μg/ml). Supernatants were collected for Caspase-1 detection. […] The caspase-1 (p20) bands are indicated with black arrow.
FIG. 31. Modified NRTIs (K8, K9) block flagellin-induced NLRC4 inflammasome in BMDM. Wild type BMDM cell were pre-treated with regular NRTI (D4T, 3TC), the modified NRTIs 3-Methyl-3TC (K9) or 2-Ethyl-AZT (K8), or NLRP3 inhibitors (MCC950, CY-09) for 1 hour, and then stimulated with flagellin transfection (3 μg/ml). Supernatants were collected for secreted caspase-1 detection. […] The caspase-1 (p20) bands are indicated with black arrow.
Nucleoside reverse transcriptase inhibitors (NRTIs) are HIV therapeutics that inhibit retrovirus replication. We have previously shown that NRTIs inhibit P2X7-mediated NLRP3 inflammasome activation by an endogenous retroelement Alu RNA (SEQ ID NO: 86). Activation of NLRP3 inflammasome by Alu RNA (SEQ ID NO: 86) causes the death of retinal pigment epithelium (RPE) in geographic atrophy, a severe form of AMD. […] Currently, multiple NLRP3 inflammasome inhibitors such as MCC950, CY09 are available however, there are no inhibitors of NLRC4. So, a need exists to develop inhibitors of NLRC4 inflammasome to study NLRC4 driven diseases. Here, we show for the first time that NRTIs block flagellin induced NLRC4 inflammasome. We pretreated flagellin transfected BMDMs with DT4 and 3TC to examine caspase-1 activation.
NLRC4 oligomerization is another hallmark of inflammasome activation where high-molecular mass NLRC4 protein complexes are assembled. […]

ASC oligomerization [2] = experiment: Alu RNA induced ASC oligomerization in human RPE cells after siRNA knockdown; type: cell-based; conditions: 24 hours later Alu RNA 100 pmol (FIG. 25A)
Description: (§1) FIGS. 25A and 25B. NLRC4 knockdown blocks Alu RNA (SEQ ID NO: 86) induced ASC oligomerization and RPE degeneration. Human RPE cell treated with siRNA target on NLRC4 (SMARTPOOL siRNA for NLRC4: CAACUGGGCUCCUCUGUAA; SEQ ID NO: 93) and NAIP (SMARTPOOL siRNA for NAIP: GUAAAGAGCUAUAUGGAUA; SEQ ID NO: 94), 24 hours later, treated with Alu RNA (SEQ ID NO: 86 at 100 pmol) FIG. 25A. […] The band of ASC oligomers was indicated by black arrow. […] The hyperdense areas due to the RPE degeneration in fundus images and ZO-1 disorganizations in RPE sheet are indicated by white arrows.
(§2) Next, we asked whether Alu RNA (SEQ ID NO: 86) also triggered NLRC4 inflammasome activation in human RPE cells. We performed immunofluorescence staining experiments to examine whether Alu RNA (SEQ ID NO: 86) can induce NLRC4 speck formation in human RPE cells. We noticed punctate structures resembling specks of NLRC4 in human RPE cells in response to Alu RNA (SEQ ID NO: 86) treatment (FIG. 24A). […] We further investigated downstream events of NLRC4 inflammasome activation by studying NLRC4-induced ASC oligomerization, a critical step involved in caspase-1 cleavage. NLRC4 siRNA, when co-administered with Alu RNA (SEQ ID NO: 86), blocked ASC oligomerization in vitro (FIG. 25A) and RPE degeneration in vivo (FIG. 25B).

RPE degeneration [3] = experiment: Alu RNA induced RPE degeneration in mice, fundus images and ZO-1 staining; type: in vivo; conditions: mice, subretinal Alu RNA; fundus and ZO-1 (FIGS. 25B, 26)
Description: as §1
FIG. 26. […] Wilde type of C57/B6 mice were intravitreally injected with siRNA target on Ddx17 (siRNA for Ddx17: GGCUAGAUGUGGAAGAUGU; SEQ ID NO: 95), and two days later, Nlrc4^−/−, Naip1-6^−/−, mice and Ddx17 knockdown mice were subretinally injected with Alu RNA (SEQ ID NO: 86). […] The hyperdense areas due to the RPE degeneration in fundus images and ZO-1 disorganizations in RPE sheet are indicated by white arrows.
as §2
We delivered Alu RNA (SEQ ID NO: 86) or Alu RNA (SEQ ID NO: 86)+siDDX17 subretinally in WT or NLRC4 KO or NAIP1-6 KO mice and examined for RPE degeneration using fundus photos and ZO-1 staining as described previously.

p-NLRC4 and caspase-1 = experiment: Dicer1 knockdown induced inflammasome activation in BMDM, immunoblot; type: cell-based, mouse
From the text: FIGS. 20A and 20B. DDX17-NLRC4-NLRP3 are required for Dicer1 knockdown induced inflammasome activation. FIG. 20A. Dicer1 knockdown (siRNA for Dicer 1: GCAGUUGUCCUAAACAGAU; SEQ ID NO: 92) causes increase of p-NLRC4 and caspase-1 activation, which were blocked in Ddx17^−/− iBMDMs. FIG. 20B. Dicer1 knockdown-induced caspase-1 cleavage was impaired in Nlrc4^−/− and Nlrp3^−/− BMDMs. The caspase-1 (p20) bands are indicated with black arrows.
We have previously shown that DICER deficiency mediated accumulation of Alu RNA induces NLRP3 inflammasome activation. So we examined whether DICER knockdown could also induce DDX17-NLRC4-NLRP3 signaling. WT and DDX17 KO BMDMs were transfected with siDICER to examine NLRC4 phosphorylation and caspase-1. […] We then determined phosphorylation of NLRC4 and caspase-1 activation in WT, NLRC4 KO and NLRP3 KO BMDMs after transfection with siDICER or sicontrol.

ASC oligomerization [4] = experiment: Alu RNA induced ASC oligomerization in THP1 cells after siRNA knockdown; type: cell-based, human; conditions: siRNA knockdown (FIG. 12A)
From the text: (§3) FIGS. 12A and 12B. DDX17 knockdown blocks Alu RNA (SEQ ID NO: 86) induced ASC oligomerization and IL-1β release. FIG. 12A. siRNA mediated DDX17 knockdown (siRNA for DDX17: CCAAUCUGAUGUAUCAGGA; SEQ ID NO: 91), but not Ddx5 (siRNA for DDX5: GGAAAUUACAGUUAGAGGU; SEQ ID NO: 89) in THP1 cells, blocked Alu RNA (SEQ ID NO: 86) induced ASC oligomerization. The band of ASC oligomers were indicated by black arrow. FIG. 12B. siRNA mediated DDX17 knockdown, but not Ddx5 in THP1 cells, blocked Alu RNA (SEQ ID NO: 86) induced IL-1β release.
(§4) To further confirm that DDX17 is the sensor for NLRC4, we investigated caspase-1 cleavage by immunoblotting and IL-1β secretion by ELISA in Alu RNA (SEQ ID NO: 86) or mock treated THP1 cells and DDX17 KO BMDMs respectively.

IL-1β = experiment: Alu RNA induced IL-1β release in THP1 cells after siRNA knockdown, ELISA; type: cell-based, human; conditions: siRNA knockdown (FIG. 12B)
From the text: as §3, §4

[5] = target: T1, mouse NLR family CARD domain containing 4 (Nlrc4) (mouse, UniProt Q3UP24 1-1024); experiment: immunofluorescence of endogenous ASC specks and NLRC4 puncta in SINE RNA-transfected BMDMs
T1 construct: Endogenous protein of mouse BMDM / iBMDM
T1 sequence (Q3UP24 whole entry, the tested form may be a part): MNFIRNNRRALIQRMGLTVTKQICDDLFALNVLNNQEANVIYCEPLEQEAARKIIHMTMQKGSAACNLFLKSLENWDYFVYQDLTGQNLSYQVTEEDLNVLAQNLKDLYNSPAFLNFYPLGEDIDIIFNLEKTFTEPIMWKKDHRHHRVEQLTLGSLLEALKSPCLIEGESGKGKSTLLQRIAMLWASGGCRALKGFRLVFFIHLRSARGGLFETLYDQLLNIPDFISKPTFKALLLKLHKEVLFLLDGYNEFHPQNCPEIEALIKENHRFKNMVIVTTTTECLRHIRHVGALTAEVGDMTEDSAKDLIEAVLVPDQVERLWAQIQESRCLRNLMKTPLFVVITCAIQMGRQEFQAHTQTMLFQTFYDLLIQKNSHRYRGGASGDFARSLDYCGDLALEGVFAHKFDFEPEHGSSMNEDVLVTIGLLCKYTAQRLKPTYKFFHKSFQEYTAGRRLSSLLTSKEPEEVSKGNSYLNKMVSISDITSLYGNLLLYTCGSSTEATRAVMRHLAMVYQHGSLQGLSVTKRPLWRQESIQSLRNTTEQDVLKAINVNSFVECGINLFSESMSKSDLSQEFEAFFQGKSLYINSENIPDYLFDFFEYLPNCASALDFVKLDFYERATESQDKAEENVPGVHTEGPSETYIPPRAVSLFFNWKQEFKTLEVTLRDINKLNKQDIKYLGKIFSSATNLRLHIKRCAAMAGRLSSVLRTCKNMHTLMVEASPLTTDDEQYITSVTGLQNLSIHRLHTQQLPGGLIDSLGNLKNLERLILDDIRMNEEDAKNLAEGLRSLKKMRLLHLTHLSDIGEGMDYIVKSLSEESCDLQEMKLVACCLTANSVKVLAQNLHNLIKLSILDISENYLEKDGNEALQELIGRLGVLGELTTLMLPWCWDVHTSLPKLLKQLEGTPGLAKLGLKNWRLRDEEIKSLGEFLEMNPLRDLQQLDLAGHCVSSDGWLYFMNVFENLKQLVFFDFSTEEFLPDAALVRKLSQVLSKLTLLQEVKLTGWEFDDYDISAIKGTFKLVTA
Description: FIGS. 3A and 3B. SINE RNA-induced ASC oligomerization is dependent on NLRC4 (BMDM). FIG. 3A. Immunofluorescence images of endogenous ASC specks and NLRC4 puncta in BMDMs after transfected with Alu (SEQ ID NO: 86) or B2 (SEQ ID NO: 88) RNA or transfection reagents only (Mock). […] Moreover, NLRC4 proteins assembled as puncta, and co-resided with ASC specks. FIG. 3B. ASC oligomerizations were evaluated in wild-type and Nlrc4^{-/-} BMDMs through cross-linking and western blot. […] The bands of oligomeric ASC protein were indicated by black arrow.
The activated NLRC4 inflammasome undergoes oligomerization by assembling into high-molecular mass multiprotein complexes. We first investigated in situ assembling of NLRC4 and apoptosis speck (ASC) like protein complexes in response to SINE RNA treatment of BMDMs. Immunofluorescence studies show increased NLRC4 and ASC specks in SINE RNA-treated BMDMs compared to mock-treated cells (FIG. 3A). To assess NLRC4 inflammasome assembly, WT and NLRC4 KO BMDM cells were treated with Alu RNA (SEQ ID NO: 86). Disuccinimidyl suberate (DSS) cross-linked lysates were resolved using denaturing SDS-PAGE to detect ASC oligomers and cell lysates were resolved using native polyacrylamide gel electrophoresis (NATIVE-PAGE) to detect NLRC4 oligomerization. […] NLRC4/ASC oligomerization is essential for the cleavage of pro-caspase-1 into its active form p20 and IL-1β release.

Question: What does the source list for `Cc1cn([C@H]2C[C@H](N=[N+]=[N-])[C@@H](CO)O2)c(=O)[nH]c1=O` [AZT, 3′-deoxy-3′-azidothymidine 1-[(2R,4S,5S)-4-Azido-5-(hydroxymethyl)oxolan-2-yl]-5-methylpyrimidine-2,4-dione]?
Answer: binding of biotin-labeled NRTI to NLRC4 and NLRP3 (NLRP3/NLRC4 complex): interacted with NLRP3 and NLRC4; also recorded: could directly bind to NLRC4 and NLRP3 protein; Alu RNA induced RPE degeneration in mice (RPE degeneration [1]): prevented

Question: Which results are given for `Cc1cn([C@H]2C=C[C@@H](CO)O2)c(=O)[nH]c1=O` [D4T, 1-[(2R,5S)-5-(hydroxymethyl)-2,5-dihydrofuran-2-yl]-5-methyl-1,2,3,4-tetrahydropyrimidine-2,4-dion]?
Answer: binding of biotin-labeled NRTI to NLRC4 and NLRP3 (NLRP3/NLRC4 complex): interacted with NLRP3 and NLRC4; also recorded: could directly bind to NLRC4 and NLRP3 protein; Alu RNA induced RPE degeneration in mice (RPE degeneration [1]): prevented; flagellin induced caspase-1 activation (NLRC4 inflammasome): blocked; also recorded: reduced

Question: With “NLRC4 siRNA: SMARTPOOL siRNA for NLRC4: CAACUGGGCUCCUCUGUAA; SEQ ID NO: 93 (listed as RNA, chemistry not given here)” as the molecule, how does the “Alu RNA induced ASC oligomerization, human RPE cells” value (ASC oligomerization [2]) read?
Answer: blocked

Question: What about the “Alu RNA induced ASC oligomerization, human RPE cells” value (ASC oligomerization [2]; listed as SMARTPOOL siRNA for NLRC4) of the same molecule?
Answer: reduced

Question: What about the “Alu RNA induced RPE degeneration in vivo, effect of siRNA” value (RPE degeneration [3]) of the same molecule?
Answer: blocked

Question: With “siDICER: siRNA for Dicer 1: GCAGUUGUCCUAAACAGAU; SEQ ID NO: 92 (listed as RNA, chemistry not given here)” as the molecule, how does the “phosphorylation of NLRC4 after Dicer1 knockdown” value (p-NLRC4 and caspase-1; WT BMDMs (FIG. 20A)) read?
Answer: induced the phosphorylation of NLRC4

Question: And the “caspase-1 activation after Dicer1 knockdown” value (p-NLRC4 and caspase-1; WT BMDMs (FIG. 20B))?
Answer: induced the activation of caspase-1

Question: Which “Alu RNA induced ASC oligomerization, THP1 cells” value (ASC oligomerization [4]) does the source give for “siRNA for Ddx17: siRNA for Ddx17: GGCUAGAUGUGGAAGAUGU; SEQ ID NO: 95, injected in mice (chemistry not fully specified)” here?
Answer: blocked

Question: What about the “Alu RNA induced IL-1β release, THP1 cells, ELISA” value (IL-1β) of the same molecule?
Answer: blocked

Question: What about the “Alu RNA induced RPE degeneration in vivo, effect of siRNA” value (RPE degeneration [3]) of the same molecule?
Answer: blocked

B1: mouse apoptosis-associated speck-like protein containing a CARD (ASC) (other, UniProt Q9EPB4 1-193, looked up)
chain: MGRARDAILDALENLSGDELKKFKMKLLTVQLREGYGRIPRGALLQMDAIDLTDKLVSYYLESYGLELTMTVLRDMGLQELAEQLQTTKEESGAVAAAASVPAQSTARTGHFVDQHRQALIARVTEVDGVLDALHGSVLTEGQYQAVRAETTSQDKMRKLFSFVPSWNLTCKDSLLQALKEIHPYLVMDLEQS
notes: Endogenous protein of mouse BMDM
Question: Does B1 bind [5]?
Answer: binds
